Data: BindingDB's records for doi:10.1021/jm980108d (Prassis Istituto Di Ricerche Sigma-Tau, 1998)

Target: Sodium/potassium-transporting ATPase (Canis familiaris)
Test: Compound was evaluated for its ability to inhibit the specific [3H]-ouabain binding to dog kidney Na+/K+ ATPase

## C[C@]12CC[C@H](O)C[C@H]1CC[C@@H]1[C@@H]2CC[C@]2(C)[C@@H](/C=C/C=O)CC[C@]12O
  IC50: 60 nM

## C[C@H]1/C(=C/C(=O)OCCN(C)C)CCC2C1C(=O)C[C@H]1C(C)(C)[C@@H](O)CC[C@]21C (stereo partly drawn) [[(1R,4bR,7S,8aR)-7-Hydroxy-1,4b,8,8-tetramethyl-10-oxo-dodecahydro-phenanthren-(2E)-ylidene]-acetic acid 2-dimethylamino-ethyl ester]
  IC50: 100 nM
